Paper PMC2642980 (Bioorganic & medicinal chemistry letters, 2008)

How the values were obtained:
Caco-2 monolayers = assay: Transepithelial transport through Caco-2 monolayers; settings: apical pH 6.0 MES to basolateral pH 7.4 HEPES, 21 days post-seeding
[1] = molecular target: T1, human PEPT1 transporter (HeLa/hPEPT1 cells) (Homo sapiens, UniProt P46059); assay: Direct uptake in HeLa cells overexpressing hPEPT1; settings: fold uptake over control cells not expressing PEPT1
T1 sequence (P46059 1-708): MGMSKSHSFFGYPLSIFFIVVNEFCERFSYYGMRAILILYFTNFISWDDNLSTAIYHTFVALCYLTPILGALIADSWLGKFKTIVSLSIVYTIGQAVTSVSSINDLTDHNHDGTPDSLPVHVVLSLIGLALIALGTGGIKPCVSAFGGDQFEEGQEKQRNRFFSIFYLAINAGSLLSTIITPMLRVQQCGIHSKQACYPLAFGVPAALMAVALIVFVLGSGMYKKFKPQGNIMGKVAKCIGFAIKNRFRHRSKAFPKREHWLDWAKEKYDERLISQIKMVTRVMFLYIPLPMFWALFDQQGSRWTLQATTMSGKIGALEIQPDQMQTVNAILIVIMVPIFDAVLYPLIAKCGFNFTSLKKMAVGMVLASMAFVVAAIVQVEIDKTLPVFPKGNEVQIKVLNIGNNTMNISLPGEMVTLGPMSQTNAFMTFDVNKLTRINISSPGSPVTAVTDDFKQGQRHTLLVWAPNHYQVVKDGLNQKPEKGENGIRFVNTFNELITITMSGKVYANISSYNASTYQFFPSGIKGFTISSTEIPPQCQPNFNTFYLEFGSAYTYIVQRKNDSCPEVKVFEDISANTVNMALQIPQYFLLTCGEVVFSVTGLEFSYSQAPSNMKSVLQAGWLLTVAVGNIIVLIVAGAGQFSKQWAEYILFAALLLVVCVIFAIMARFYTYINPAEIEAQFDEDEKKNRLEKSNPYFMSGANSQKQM

vaccinia virus = assay type: cell-based; settings: read-out: EC50 Vaccinia
cowpox virus = assay type: cell-based; settings: read-out: EC50 Cowpox
[2] = rat
[3] = cited from earlier work
[4] = cited from earlier work; remark: listed apart in the source

Compound | Caco-2 permeability (Caco-2 monolayers) [cm/s × 10^6] | hPEPT1 control (uptake ratio HeLa/hPEPT1 over HeLa control) [1] | other results
CC(C)[C@@H](N)C(=O)OC[C@H]1O[C@@H](n2cnc3c(N)ncnc32)[C@@H](O)[C@@H]1O [Compound 7a] | 0.601 | – | –
CC(C)[C@H](N)C(=O)OC[C@H]1O[C@@H](n2cnc3c(N)ncnc32)[C@@H](O)[C@@H]1O [Compound 7i] | – | 20.7 | –
Nc1ncnc2c1ncn2[C@@H]1O[C@H](COC(=O)[C@@H](N)Cc2ccccc2)[C@@H](O)[C@@H]1O [Compound 7l] | 0.668 | – | –
CC[C@H](C)[C@H](N)C(=O)OC[C@H]1O[C@@H](n2cnc3c(N)ncnc32)[C@@H](O)[C@@H]1O [Compound 7k] | 1.026 | 26.9 | –
1-Beta-D-arabinofuranosyladenine [Vidarabine] | 0.083 | – | EC50 (vaccinia virus): 6.2 µM; EC50 (cowpox virus): 12.6 µM; T1/2 Plasma [2]: 25.8 min; Solubility in water [3]: ~ 0.47 mg/ml
CC(C)[C@H](N)C(=O)OCCOCn1cnc2c(=O)[nH]c(N)nc21 [Valacyclovir] | – | 19.0 | –
O=c1[nH]cnc2c1ncn2[C@@H]1O[C@H](CO)[C@@H](O)[C@@H]1O [ara-H, ara-hypoxanthine] | – | – | Fold less potent than vidarabine (antiviral activity) [4]: at least 10 fold
